The source of these data is patent publication US20260132127A1, “NOVEL SPIRO COMPOUND” (MITSUBISHI TANABE PHARMA CORPORATION, priority 2021, published 2026).

The target of this experiment is T1, human TRH-DE (Homo sapiens, UniProt Q9UKU6).
T1 construct: expressed in transfected cells; host or cells: Expi 293 cells (transient expression), membrane fraction
T1 sequence (Q9UKU6 1-1069): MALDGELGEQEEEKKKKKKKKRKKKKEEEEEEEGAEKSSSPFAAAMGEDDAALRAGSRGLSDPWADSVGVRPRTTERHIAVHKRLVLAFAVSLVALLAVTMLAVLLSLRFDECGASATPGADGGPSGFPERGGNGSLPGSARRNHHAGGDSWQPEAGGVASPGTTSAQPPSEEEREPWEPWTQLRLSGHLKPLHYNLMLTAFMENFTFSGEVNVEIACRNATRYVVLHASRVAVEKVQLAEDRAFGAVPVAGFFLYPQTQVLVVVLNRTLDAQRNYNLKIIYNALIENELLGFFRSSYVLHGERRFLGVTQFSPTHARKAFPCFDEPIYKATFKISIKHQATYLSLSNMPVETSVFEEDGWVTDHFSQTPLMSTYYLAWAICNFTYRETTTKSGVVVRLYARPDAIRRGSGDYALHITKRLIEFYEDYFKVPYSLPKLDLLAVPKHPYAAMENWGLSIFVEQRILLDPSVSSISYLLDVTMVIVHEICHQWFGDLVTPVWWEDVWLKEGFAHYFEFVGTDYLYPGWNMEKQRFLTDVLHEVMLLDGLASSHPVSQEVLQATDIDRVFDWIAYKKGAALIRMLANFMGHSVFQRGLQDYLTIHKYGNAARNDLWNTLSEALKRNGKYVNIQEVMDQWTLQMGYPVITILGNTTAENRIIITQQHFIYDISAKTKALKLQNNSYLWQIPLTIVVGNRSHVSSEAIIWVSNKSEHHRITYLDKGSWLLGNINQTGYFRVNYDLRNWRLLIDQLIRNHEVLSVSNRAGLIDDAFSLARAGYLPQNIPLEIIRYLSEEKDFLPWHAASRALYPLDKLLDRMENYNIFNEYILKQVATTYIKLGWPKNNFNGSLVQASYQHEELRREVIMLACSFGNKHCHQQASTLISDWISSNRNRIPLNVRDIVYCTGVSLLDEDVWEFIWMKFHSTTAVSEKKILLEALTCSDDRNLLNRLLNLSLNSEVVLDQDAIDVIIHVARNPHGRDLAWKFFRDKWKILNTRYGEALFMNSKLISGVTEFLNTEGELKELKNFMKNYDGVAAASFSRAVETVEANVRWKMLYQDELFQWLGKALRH
The experiment is described as follows: TRH-DE inhibition test (RapidFire MS measurement of product Cyclo (His-Pro)). It counts as biochemical. The following applies: membrane fraction of Expi 293 cells expressing human TRH-DE; 10 μM TRH substrate; room temperature, 2 hours; 16-point concentration test. How it is done:
The compounds described in “1. […] The enzyme inhibitory activity of each of the compounds was evaluated by measuring the amount of the product Cyclo (His-Pro) of the enzyme reaction using a RapidFire RF 365 HTMS system (manufactured by Agilent Technologies, Inc.) connected to a triple quadrupole mass spectrometer (API 4000, manufactured by SCIEX). A membrane fraction prepared from Expi 293 cells transiently expressing human TRH-DE was used as an enzyme. The membrane fraction was suspended in 4 μg/ml of a reaction buffer (50 mM sodium phosphate (pH 7.4), 25 mM NaCl, 0.01% Triton […], and 200 μM bacitracin) and mixed with the test compound at each concentration. 10 μM […]), which was a substrate, was added, and the mixture was reacted at room temperature for 2 hours. The reaction was stopped in the same amount of a solution of acetonitrile:methanol (1:1) containing 1 μM of the stable isotope Cyclo ([…]) as an internal standard, and the supernatant was collected after centrifugation. In the RapidFire RF 365 HTMS system, a portion of the supernatant was aspirated, loaded onto a Graphic Carbon column (manufactured by Agilent Technologies, Inc.) with a buffer A (water, 0.09% formic acid, 0.01% trifluoroacetic acid) and washed with ultrapure water. Next, washing was performed with acetonitrile. The contents in the column were eluted with a buffer B (80% acetonitrile, 0.09% formic acid, 0.01% trifluoroacetic acid) and injected into a mass spectrometer for analysis. […] The ESI voltage was set to 5,500 V and the temperature was set to 650° C. For the calculation of the inhibition rate, a Ratio value corrected by dividing the product amount by the internal standard amount was used. The inhibition rate (%) was calculated by % Inhibition={1-(Ratio value of sample-Ratio value of blank)/(Ratio value of control-Ratio value of blank)}×100. The IC50 value was calculated from the concentration reactivity test at 16 points.

Take `CCCN(C(=O)c1ccnc2[nH]cnc12)C1CC2(C1)CN(S(=O)(=O)c1cc(C)ccc1F)C2` [Example 426]: the IC50 – broadly, the midpoint of a concentration-inhibition curve – was determined as 0.095 µM. As to `C[C@@H]1COc2nc(OC3CCOCC3)ncc2C(=O)N1C1CC2(C1)CN(S(=O)(=O)c1ccccc1F)C2` [Example 375], half-maximal inhibition (IC50) required 0.011 µM.

With `C[C@@H]1COc2nc(N3C[C@H]4C[C@@H](C3)O4)ncc2C(=O)N1C1CC2(C1)CN(S(=O)(=O)c1ccccc1F)C2` [Example 398], the IC50 came out at 0.002 µM. Regarding `C[C@@H]1COc2nc(N3CCCCC3)ncc2C(=O)N1C1CC2(C1)CN(S(=O)(=O)c1ccccc1F)C2` [Example 382], the IC50 was 0.004 µM.

With `C[C@@H]1COc2nc([C@@H]3C[C@H]3F)sc2C(=O)N1C1CC2(C1)CN(S(=O)(=O)c1ccccc1F)C2` [Example 235, (6R)-2-[(1R,2R)-2-fluorocyclopropyl]-7-[2-(2-fluorophenyl)sulfonyl-2-azaspiro[3.3]heptan-6-yl]-6-methyl-5,6-dihydrothiazolo[5,4-f][1,4]oxazepin-8-one], the midpoint of inhibition, the IC50, lay at 0.003 µM. The IC50 values of the last two compounds are within 1.5-fold of each other. Compound `CC1C=Cc2ncccc2C(=O)N1C1CC2(C1)CN(S(=O)(=O)c1ccccc1F)C2` (racemic) [Example 113] displayed an IC50 of 0.026 µM. `C[C@@H]1COc2c(noc2Br)C(=O)N1C1CC2(C1)CN(S(=O)(=O)c1ccccc1F)C2` [Example 297, (6R)-3-bromo-7-[2-(2-fluorophenyl)sulfonyl-2-azaspiro[3.3]heptan-6-yl]-6-methyl-5,6-dihydroisoxazolo[3,4-f][1,4]oxazepin-8-one]: the half-maximal inhibitory concentration (IC50) turned out to be 0.018 µM.

`Cc1onc2c1CC[C@@H](C)N(C1CC3(C1)CN(S(=O)(=O)c1ccccc1F)C3)C2=O` [Example 103]: half-maximal inhibition (IC50) was put at 0.01 µM. As for `O=C1c2cccnc2OC[C@@H](C2CC2)N1C1CC2(C1)CN(S(=O)(=O)c1ccccc1F)C2` [Example 60], the figure is 0.049 µM; as for `C[C@@H]1CCN(c2ccccn2)CC(=O)N1C1CC2(C1)CN(S(=O)(=O)c1ccccc1F)C2` [Example 456, (7R)-1-[2-(2-fluorophenyl)sulfonyl-2-azaspiro[3.3]heptan-6-yl]-7-methyl-4-pyridin-2-yl-1,4-diazepan-2-one], 0.09 µM; as for `C[C@@H]1COc2nn(C)c(Br)c2C(=O)N1C1CC2(C1)CN(S(=O)(=O)c1ccccc1F)C2` [Example 212], 0.023 µM.

`C[C@@H]1Cn2c(ccc2C(F)(F)F)C(=O)N1C1CC2(C1)CN(S(=O)(=O)c1ccccc1F)C2` [Example 345, (3R)-2-[2-(2-fluorophenyl)sulfonyl-2-azaspiro[3.3]heptan-6-yl]-3-methyl-6-(trifluoromethyl)-3,4-dihydropyrrolo[1,2-a]pyrazin-1-one] had an IC50 of 0.167 µM. The compound `O=C1c2ccccc2C2(CC2)N1C1CC2(C1)CN(S(=O)(=O)c1ccccc1F)C2` [Example 244] returned a half-inhibitory concentration (IC50) of 0.042 µM. As for `CC1(C)Oc2cc(Cl)ncc2C(=O)N1C1CC2(C1)CN(S(=O)(=O)c1ccccc1F)C2` [Example 344, 7-chloro-3-[2-(2-fluorophenyl)sulfonyl-2-azaspiro[3.3]heptan-6-yl]-2,2-dimethyl-pyrido[3,4-e][1,3]oxazin-4-one], the midpoint of inhibition, the IC50, lay at 0.075 µM. In turn, `C[C@@H]1Cn2nc(C3CC3)c(F)c2C(=O)N1C1CC2(C1)CN(S(=O)(=O)c1ccccc1F)C2` [Example 231] came in with an IC50 of 0.013 µM. This IC50 lies about 5.8-fold lower than the previous one. Compound `C[C@@H]1COc2nc(N3CCOC(F)(F)C3)ncc2C(=O)N1C1CC2(C1)CN(S(=O)(=O)c1ccccc1F)C2` [Example 391] returned a concentration for half-maximal inhibition (IC50) of 0.004 µM. As for `C[C@@H]1COc2cc(Cl)cnc2C(=O)N1C1CC2(C1)CN(S(=O)(=O)c1ccccc1F)C2` [Example 13], the figure is 0.002 µM. As for `C[C@@H]1COc2c(cnn2C2CC2)C(=O)N1C1CC2(C1)CN(S(=O)(=O)c1ccccc1F)C2` [Example 202], the figure is 0.019 µM; as for `CCCN(C(=O)c1cccnc1OC)C1CC2(C1)CN(S(=O)(=O)c1cccc(C)c1F)C2` [Example 420], 0.701 µM; as for `C[C@@H]1COc2c(cnn2CC(F)(F)F)C(=O)N1C1CC2(C1)CN(S(=O)(=O)c1ccccc1F)C2` [Example 201], 0.02 µM. `CC1c2cccnc2C(=O)N1C1CC2(C1)CN(S(=O)(=O)c1ccccc1F)C2` (racemic) [Example 291] yielded a concentration for half-maximal inhibition (IC50) of 0.215 µM.

On to `COC1CCN(c2ncc3c(n2)OC[C@@H](C)N(C2CC4(C2)CN(S(=O)(=O)c2ccccc2F)C4)C3=O)CC1` [Example 387], for which it took 0.004 µM to reach half-maximal inhibition (IC50). As for `C[C@@H]1CCn2ncc(Cl)c2C(=O)N1C1CC2(C1)CN(S(=O)(=O)c1ccccc1F)C2` [Example 194], half-maximal inhibition (IC50) required 0.036 µM.

For the compound `CC1COc2cc(F)cnc2C(=O)N1C1CC2(C1)CN(S(=O)(=O)c1ccccc1F)C2` (racemic) [Example 10], the IC50 was 0.012 µM. The compound `CC1CCc2[nH]c(=O)ccc2C(=O)N1C1CC2(C1)CN(S(=O)(=O)c1ccccc1F)C2` (centres unmarked) [Example 339, 6-[2-(2-fluorophenyl)sulfonyl-2-azaspiro[3.3]heptan-6-yl]-7-methyl-1,7,8,9-tetrahydropyrido[3,2-c]azepin-2,5-dione] showed an IC50 of 0.078 µM.

On to `CC1c2ccccc2CCC(=O)N1C1CC2(C1)CN(S(=O)(=O)c1ccccc1F)C2` (racemic) [Example 45, 2-[2-(2-fluorophenyl)sulfonyl-2-azaspiro[3,3]heptan-6-yl]-1-methyl-4,5-dihydro-1H-2-benzazepin-3-one], for which inhibition was half-maximal at 0.214 µM (IC50). Take `CC1C=Cc2nc(C3(F)CC3)sc2C(=O)N1C1CC2(C1)CN(S(=O)(=O)c1ccccc1F)C2` (racemic) [Example 120]: half-maximal inhibition (IC50) was put at 0.011 µM. Take `Cc1noc2c1C(=O)N(C1CC3(C1)CN(S(=O)(=O)c1ccccc1F)C3)[C@H](C)C=C2` [Example 132]: the half-maximal inhibitory concentration (IC50) came out at 0.131 µM. With `C[C@@H]1CCn2cnc(C3CC3)c2C(=O)N1C1CC2(C1)CN(S(=O)(=O)c1ccccc1F)C2` [Example 310], half-maximal inhibition (IC50) was put at 0.041 µM. `C[C@@H]1CNc2nc(C3CC3)ccc2C(=O)N1C1CC2(C1)CN(S(=O)(=O)c1ccccc1F)C2` [Example 258, (3R)-8-cyclopropyl-4-[2-(2-fluorophenyl)sulfonyl-2-azaspiro[3.3]heptan-6-yl]-3-methyl-2,3-dihydro-1H-pyrido[2,3-e][1,4]diazepin-5-one] had an IC50 of 0.001 µM. For `Cc1nn(C2CC3(C2)CN(S(=O)(=O)c2ccccc2F)C3)c(=O)c2ccccc12` [Example 242], the 50% inhibitory concentration (IC50) amounted to 0.655 µM. Against the preceding compound, the IC50 is about 660-fold higher. Compound `CC1c2ccccc2C(=O)N1C1CC2(C1)CN(S(=O)(=O)c1ccccc1F)C2` (single isomer, unassigned) [Example 358] came in with an IC50 of 0.089 µM. On to `CC1COc2ncccc2C(=O)N1C1CC2(C1)CN(S(=O)(=O)c1cccs1)C2` (racemic) [Example 81], for which the IC50 was found to be 0.67 µM. As for `C[C@@H]1CCN(C2CCOCC2)CC(=O)N1C1CC2(C1)CN(S(=O)(=O)c1ccccc1F)C2` [Example 447], the figure is 0.403 µM; as for `CC1CCOC(=O)N1C1CC2(C1)CN(S(=O)(=O)c1ccccc1F)C2` (centres unmarked) [Example 433, 3-[2-(2-fluorophenyl)sulfonyl-2-azaspiro[3.3]heptan-6-yl]-4-methyl-1,3-oxazinan-2-one], 0.868 µM.
